Measured values taken from US20140186329A1, “POLYPHENOL ANALOGS TO TREAT ISCHEMIA” (priority 2011, published 2014).

Assays:
PC12 cells = assay: Glucose starvation; type: cell-based; conditions: MTT 24 hr
Description: FIG. 5 illustrates pharmacological effects of Baicalein on cultured cells. (A) Trophic factor withdrawal. Primary cortical neurons are prepared from 18-day-old rat embryos, and cultured at low cell density 1×10^6/35 mm dish, in serum containing medium with Baicalein (10-10,000 nM), and viability assayed 2 days later using a live-dead assay. (B) Excitotoxicity assay was done with E14 mouse primary cortical neuron cultures. After 11 days of culture, cells were exposed to 10 μM glutamate for 10 min, followed by the addition of varying concentrations of Baicalein (0.2-5 μM). Cell viability was determined 24 hr later with a standard MTT assay. (C) PC12 cells were glucose-deprived then were incubates in the absence or presence of Baicalein. Cell viability was determined 24 hr later using the MTT assay. (D) RCG-5 nerve cells were treated with 30 μM iodoacetic acid for 2 hr in the presence or absence of 5-25 μM Baicalein. In some experiments, Baicalein was added 2 hr after the ischemic event. Cell survival (%) was measured after 24 hr by the MTT assay. Baicalein added before (□) or 2 hr after ([…]) ischemia. […] When these cells are starved for glucose, there is approximately 70% maximal survival in the presence of NGF. Baicalein promotes over 80% survival (FIG. 5C).

[1] = test system: primary mouse cortical neurons; assay: Primary cortical cell glutamate excitotoxicity assay; type: cell-based; conditions: for % protection against glutamate excitotoxicity at 0.1 µM: Mus musculus, Cortical neurone; for % protection against glutamate excitotoxicity at 0.1 µM / Primary Cortical Cell assay-Glutamate (% protection @ 100 nM): 10 μM glutamate, compound 100 nM
Description: FIG. 5 illustrates pharmacological effects of Baicalein on cultured cells. (A) Trophic factor withdrawal. Primary cortical neurons are prepared from 18-day-old rat embryos, and cultured at low cell density 1×10^6/35 mm dish, in serum containing medium with Baicalein (10-10,000 nM), and viability assayed 2 days later using a live-dead assay. (B) Excitotoxicity assay was done with E14 mouse primary cortical neuron cultures. After 11 days of culture, cells were exposed to 10 μM glutamate for 10 min, followed by the addition of varying concentrations of Baicalein (0.2-5 μM). Cell viability was determined 24 hr later with a standard MTT assay. (C) PC12 cells were glucose-deprived then were incubates in the absence or presence of Baicalein. Cell viability was determined 24 hr later using the MTT assay. (D) RCG-5 nerve cells were treated with 30 μM iodoacetic acid for 2 hr in the presence or absence of 5-25 μM Baicalein. In some experiments, Baicalein was added 2 hr after the ischemic event. Cell survival (%) was measured after 24 hr by the MTT assay. Baicalein added before (□) or 2 hr after ([…]) ischemia.
Primary cultures of cortical neurons that die due to excitotoxicity were prepared as described previously. Briefly, BALB/c mouse embryo cortices were minced and treated with 0.1% trypsin for 20 min. After centrifugation, the cells are resuspended in 827 Neurobasal medium (Invitrogen) plus 10% fetal calf serum and are dissociated by repeated pipetting through a 1 mL blue Eppendorf pipette tip. Then the cells are plated at 1×10^5 cells per well in 96-well poly-L-lysine and laminin-coated microtiter plates (Becton Dickinson, Bedford, Mass., USA) in 827 Neurobasal plus 10% fetal calf serum and 20% glial growth-conditioned medium. Two days later the medium is aspirated and replaced by serum-free 827 Neurobasal medium plus 10 μg/mL cytosine arabinoside. The cultures are used without media change 11 days after plating and are essentially free of astrocytes. They are exposed to 10 μM glutamate followed by varying concentrations of the compounds. Cell viability is determined 24 h later using the fluorescent live/dead assay. Glial conditioned medium is prepared from confluent rat astrocyte cultures. The cells are washed twice with serum-free medium and incubated for 2 days in serum-free Neurobasal medium to produce the growth conditioned medium.
(1) ≧80% cell survival in mouse HT22 hippocampal cells in the presence of 20 μM iodoacetic acid (IAA) (in vitro ischemia model). See, Maher, et al., Brain Res. 2007, 1173:117-25. (2) ≧35% cell survival in primary mouse cortical neurons in the presence of 10 μM glutamate (in vitro excitotoxicity assay). See, Ishige, et al., Free Radic Biol Med, 2001, 30(4): p. 433-46.

[2] = test system: embolic strokes in rabbits; assay: Rabbit small clot embolic stroke model (RSCEM); type: in vivo; conditions: for therapeutic window in the RSCEM: time post-embolization
From the text: The ability of polyphenol analogs to treat, prevent and/or mitigate one or more symptoms of stroke can also be evaluated in in vivo assays. Such assays are known in the art and find use. One applicable in vivo screening assay is the rabbit clot embolic stroke model, discussed, e.g., in Lapchak, et al., Stroke (2002) 33(9):2279-84 and Lapchak, Exp Neurol. (2007) 205(2):407-13. The rabbit small clot embolic stroke model (RSCEM) and rabbit large clot embolic stroke model (RLCEM) can be used to determine the potential neuroprotective properties and safety profile of test polyphenol analogs after an embolic stroke. Rabbits are embolized by injecting small blood clots (RSCEM) or large blood clots (RLCEM) into the cerebral circulation. Behavioral analysis is conducted 24 hours later, allowing for determination of the effective stroke dose (ES50) or clot amount (milligrams) that produces severe neurological deficits in 50% of rabbits. A drug is considered neuroprotective if it increases the ES50 compared with the vehicle-treated control group.
Behavioral analysis was conducted at 24 hours following treatment, which allowed for the construction of quantal dose-response analysis curves. […] For the superimposed graphs, normal animals are plotted on the y-axis at 0% and abnormal animals are plotted at 100%. […] Moreover, CGA increased the P50 value (the clot dose that produces abnormality in 50% of a treatment group) compared to vehicle control. For a detailed discussion of the methods used to fit the quantal data to a sigmoidal curve, see Zivin and Waud. The pharmacology of chlorogenic acid in the rabbit small clot embolic stroke model (RSCEM) has been published (Lapchak, Exp Neurol. 2007 205(2):407-13). In the manuscript, it is shown that CGA has a therapeutic window of 60 minutes in the RSCEM. FIG. 2 presents the therapeutic window data.

[3] = cell based assays (not specified)
[4] = administered 1 hour following embolization
[5] = administered 3 hours following embolization
[6] = 50 mg/kg intravenously, 5 minutes following embolization, behavior at 24 hours

O=c1cc(-c2ccccc2)oc2cc(O)c(O)c(O)c12 [Baicalein, 5,6,7-trihydroxyflavone, reference compound]
survival of glucose-starved cells (PC12 cells): over 80%
cells rescued in excitotoxicity assay ([1]; E14 mouse cortical neurons, 10 μM glutamate 10 min, 0.2-5 μM, MTT 24 hr): about 35%
% protection against glutamate excitotoxicity at 0.1 µM [1]: 0%
P50 value (clot dose that produces abnormality in 50% of a group) ([2]; 100 mg/kg subcutaneously, 60 minutes following embolization): 2.15 ± 0.12 mg
improvement of behavior [2, 4]: effective at improving behavior
improvement of behavior [2, 5]: neither improve behavior
therapeutic window in the RSCEM [2]: ≥ 60 min

CCOc1cc(-c2ccc(O)c(O)c2)nc2ccccc12 [CMS-023, 4-ethoxy-2-(3,4-dihydroxyphenyl) quinoline]
Primary Cortical Cell assay-Glutamate (% protection @ 100 nM) [1]: 100%

CC(C)Oc1cc(-c2ccc(O)c(O)c2)nc2ccccc12 [CMS-024, 4-isopropoxy-2-(3,4-dihydroxyphenyl) quinoline]
Primary Cortical Cell assay-Glutamate (% protection @ 100 nM) [1]: 58%

O=c1c(O)c(-c2ccc(O)c(O)c2)oc2c1ccc1ccccc12 [CMS-040, 2-(3,4-dihydroxyphenyl)-3-hydroxy-4H-benzo[h]chromen-4-one]
% protection against glutamate excitotoxicity at 0.1 µM [1]: 86%

COc1cc(-c2oc3cc(C)c(C)cc3c(=O)c2O)ccc1OCc1ccccc1 [CMS-059, 2-(4-(benzyloxy)-3-methoxyphenyl)-3-hydroxy-6,7-dimethyl-4H-chromen-4-one]
% protection against glutamate excitotoxicity at 0.1 µM [1]: 78%

COc1cc(-c2oc3cc(C)c(C)cc3c(=O)c2O)ccc1O [CMS-069, 3-hydroxy-2-(4-hydroxy-3-methoxyphenyl)-6,7-dimethyl-4H-chromen-4-one]
Primary Cortical Cell assay-Glutamate (% protection @ 100 nM) [1]: 86%

O=C(/C=C/c1ccc(O)c(O)c1)O[C@@H]1C[C@](O)(C(=O)O)C[C@@H](O)[C@H]1O [Chlorogenic Acid, 1,3,4,5-tetrahydroxy-cyclohexanecarboxylic acid 3-(3,4-dihydroxycinnamate)]
% protection against glutamate excitotoxicity at 0.1 µM [1]: 0%
P50 value (clot dose that produces abnormality in 50% of a group) [2, 6]: 3.61 ± 0.52 mg
improvement of behavior [2, 4]: effective at improving behavior
improvement of behavior [2, 5]: neither improve behavior
therapeutic window in the RSCEM [2]: 60 min

O=c1c(O)c(-c2ccc(O)c(O)c2)oc2cc(O)ccc12 [Fisetin, 3,7,3′,4′-Tetrahydroxyflavone, reference compound]
EC50 [3]: 2 to 5 µM
Primary Cortical Cell assay-Glutamate (% protection @ 100 nM) [1]: 0%
P50 value (clot dose that produces abnormality in 50% of a group) [2, 6]: 2.53 ± 0.55 mg
